Source: patent US7759345B2, “Antitumoral derivatives of ET-743” (priority 2001, dated 2010)
Read-outs that look alike come from different tables or passages of the source.

Key:
A-549 [1] = experiment: Inhibition of cells growth by colorimetric assay (SRB), A-549; assay type: cell-based
How it was run: (§1)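 48 h SRB cytotoxicity assay; compound range 10–10^−8 μg/ml; seeding 5×10^3 cells/well, 18 h pre-attachment; OD 490 nm; GI, TGI, LC from triplicate means ± SD.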

Liver [2] = experiment: In vitro toxicity, Liver
Description: (§3) Toxicity was asssessed by the methods reported in Toxicology in Vitro, 15 (2001) 571-577, J. Luber Narod et al.: “Evaluation of the use of in vitro methodolodies as tools for screening new compounds for potential in vivo toxicity”.

PANC-1 = experiment: Inhibition of cells growth by colorimetric assay (SRB), PANC-1; assay type: cell-based
How it was run: as §1

Myelo [3] = experiment: In vitro toxicity, Myelo
Description: as §3

DU-145 [4] = experiment: Inhibition of cells growth by colorimetric assay (SRB), DU-145; assay type: cell-based
How it was run: as §1

SK-MEL-28 = experiment: Inhibition of cells growth by colorimetric assay (SRB), SK-MEL-28; assay type: cell-based
How it was run: as §1

HT-29 [5] = experiment: Inhibition of cells growth by colorimetric assay (SRB), HT-29; assay type: cell-based
How it was run: as §1

SK-BR-3 = experiment: Inhibition of cells growth by colorimetric assay (SRB), SK-BR-3; assay type: cell-based
How it was run: as §1

IGROV-ET = experiment: Inhibition of cells growth by colorimetric assay (SRB), IGROV-ET; assay type: cell-based
How it was run: as §1

Kidney [6] = experiment: In vitro toxicity, Kidney
Description: as §3

IGROV-1 = experiment: Inhibition of cells growth by colorimetric assay (SRB), IGROV-1; assay type: cell-based
How it was run: as §1

LoVo-Dox = experiment: Inhibition of cells growth by colorimetric assay (SRB), LoVo-Dox; assay type: cell-based
How it was run: as §1

K-562 = experiment: Inhibition of cells growth by colorimetric assay (SRB), K-562; assay type: cell-based
How it was run: as §1

Skeletal [7] = experiment: In vitro toxicity, Skeletal
Description: as §3

HMEC1 = experiment: Inhibition of cells growth by colorimetric assay (SRB), HMEC1; assay type: cell-based
How it was run: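 Compound in DMSO/EtOH/PBS vehicle was applied at 10 to 10^−8 μg/ml to attached cells (5×10^3/well, 18 h) for 48 h. Cells were then fixed with cold TCA and stained with 0.4% SRB in 1% acetic acid.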

LoVo = experiment: Inhibition of cells growth by colorimetric assay (SRB), LoVo; assay type: cell-based
How it was run: as §1

SK-OV-3 = experiment: Inhibition of cells growth by colorimetric assay (SRB), SK-OV-3; assay type: cell-based
How it was run: as §1

LNCaP = experiment: Inhibition of cells growth by colorimetric assay (SRB), LNCaP; assay type: cell-based
How it was run: as §1

Heart [8] = experiment: In vitro toxicity, Heart
Description: as §3

DU-145 [9] = experiment: Inhibition of cell growth by counting cells, DU-145; assay type: cell-based, human; settings: Homo sapiens, DU-145, 72 h; three days of incubation; read-out: IC50 (molar) DU-145
How it was run: (§2)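 Human tumor cells were seeded at 1×10^4 cells per well in EMEM with 5% FCS containing graded compound concentrations, in duplicate, and incubated three days at 37° C, 5% CO2. Cells were then trypsinized and counted electronically; IC50 came from dose-response curves of percent growth versus drug-free controls.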

P-388 = experiment: Inhibition of cell growth by counting cells, P-388; assay type: cell-based, mouse; settings: Mus musculus, P388, 72 h; three days of incubation; read-out: IC50 (molar) P-388
How it was run: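 Mouse P-388 lymphoid neoplasm suspension cells seeded at 1×10^4 cells/well in EMEM 5% FCS containing graded sample concentrations, in duplicate alongside drug-free growth controls. Cells counted by Coulter counter; % growth vs untreated gives dose-response curves, IC50 = concentration producing 50% growth inhibition.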

Heart [10] = tested on: Heart
Description: as §3

Skeletal [11] = tested on: Skeletal
Description: as §3

Myelo [12] = tested on: Myelo
Description: as §3

Kidney [13] = tested on: Kidney
Description: as §3

tumor cell culture = experiment: Bioassays for antitumor screening, cell line not given; assay type: cell-based; settings: cell line not stated
Description: Bioassays for Antitumor Screening
The finality of these assays is to interrupt the growth of a “in vitro” tumor cell culture by means a continued exhibition of the cells to the sample to be testing.

Liver [14] = tested on: Liver
Description: as §3

HT-29 [15] = experiment: Inhibition of cell growth by counting cells, HT-29; assay type: cell-based, human; settings: Homo sapiens, HT-29, 72 h; three days of incubation; read-out: IC50 (molar) HT-29
How it was run: as §2

MEL-28 = experiment: Inhibition of cell growth by counting cells, MEL-28; assay type: cell-based, human; settings: Homo sapiens, SK-MEL-28, 72 h; three days of incubation; read-out: IC50 (molar) MEL-28
How it was run: as §2

A-549 [16] = experiment: Inhibition of cell growth by counting cells, A-549; assay type: cell-based, human; settings: Homo sapiens, A549, 72 h; three days of incubation; read-out: IC50 (molar) A-549
How it was run: as §2

COc1cc2c(cc1O)CCN[C@]21CS[C@@H]2c3c(OC(=O)C(F)(F)C(F)(F)C(F)(F)F)c(C)c4c(c3[C@H](COC1=O)N1C2[C@H]2c3c(cc(C)c(OC)c3O)C[C@@H]([C@@H]1O)N2C)OCO4 (stereo partly shown) [Compound 167]
GI50 (A-549 [1]; Homo sapiens, A549, 48 h, read-out: A-549 GI50): 28.3 nM | LC50 (concentration for 50% cell killing) (A-549 [1]; Homo sapiens, A549, 48 h, read-out: A-549 LC50, SRB assay, 48 hours exposure): 482 nM | A-549 TGI (A-549 [1]; SRB assay, 48 hours exposure): 6.54E-08 | Toxicity Data Liver (Liver [2]): 4.83E-07 | GI50 (PANC-1; Homo sapiens, PANC-1, 48 h, read-out: PANC-1 GI50): 46.5 nM | LC50 (concentration for 50% net cell kill) (PANC-1; Homo sapiens, PANC-1, 48 h, read-out: PANC-1 LC50, SRB assay, 48 hours exposure): 10.9 µM | PANC-1 TGI (PANC-1; SRB assay, 48 hours exposure): 1.09E-07 | Toxicity Data Myelo (Myelo [3]): 1.01E-06 | GI50 (DU-145 [4]; Homo sapiens, DU-145, 48 h, read-out: DU-145 GI50): 48.8 nM | CC50 (DU-145 [4]; Homo sapiens, DU-145, 48 h, read-out: DU-145 LC50, SRB assay, 48 hours exposure): 10.9 µM | DU-145 TGI (DU-145 [4]; SRB assay, 48 hours exposure): 1.01E-07 | GI50 (SK-MEL-28; Homo sapiens, SK-MEL-28, 48 h, read-out: MEL-28 GI50): 23.8 nM | CC50 (SK-MEL-28; Homo sapiens, SK-MEL-28, 48 h, read-out: MEL-28 LC50, SRB assay, 48 hours exposure): 107 nM | MEL-28 TGI (SK-MEL-28; SRB assay, 48 hours exposure): 5.06E-08 | GI50 (HT-29 [5]; Homo sapiens, HT-29, 48 h, read-out: HT-29 GI50): 28.9 nM | LC50 (concentration for 50% cell killing) (HT-29 [5]; Homo sapiens, HT-29, 48 h, read-out: HT-29 LC50, SRB assay, 48 hours exposure): 10.9 µM | HT-29 TGI (HT-29 [5]; SRB assay, 48 hours exposure): 1.51E-07 | GI50 (SK-BR-3; Homo sapiens, SK-BR-3, 48 h, read-out: SK-BR3 GI50): 17.6 nM | CC50 (SK-BR-3; Homo sapiens, SK-BR-3, 48 h, read-out: SK-BR3 LC50, SRB assay, 48 hours exposure): 238 nM | SK-BR3 TGI (SK-BR-3; SRB assay, 48 hours exposure): 5.19E-08 | GI50 (IGROV-ET; Homo sapiens, 48 h, read-out: IGROV-ET GI50): 77.6 nM | CC50 (IGROV-ET; Homo sapiens, 48 h, read-out: IGROV-ET LC50, SRB assay, 48 hours exposure): 5.24 µM | IGROV-ET TGI (IGROV-ET; SRB assay, 48 hours exposure): 9.05E-07 | Toxicity Data Kidney (Kidney [6]): 2.77E-07 | GI50 (IGROV-1; Homo sapiens, IGROV-1, 48 h, read-out: IGROV GI50): 6.46 nM | CC50 (IGROV-1; Homo sapiens, IGROV-1, 48 h, read-out: IGROV LC50, SRB assay, 48 hours exposure): 89.2 nM | IGROV TGI (IGROV-1; SRB assay, 48 hours exposure): 2.49E-08 | GI50 (LoVo-Dox; Homo sapiens, 48 h, read-out: LOVO-DOX GI50): 416 nM | CC50 (LoVo-Dox; Homo sapiens, 48 h, read-out: LOVO-DOX LC50, SRB assay, 48 hours exposure): 10.9 µM | LOVO-DOX TGI (LoVo-Dox; SRB assay, 48 hours exposure): 1.58E-06 | GI50 (K-562; Homo sapiens, K562, 48 h, read-out: K-562 GI50): 7 nM | LC50 (50% cell killing) (K-562; Homo sapiens, K562, 48 h, read-out: K-562 LC50, SRB assay, 48 hours exposure): 71.7 nM | K-562 TGI (K-562; SRB assay, 48 hours exposure): 9.64E-09 | Toxicity Data Skeletal (Skeletal [7]): 1.09E-07 | GI50 (HMEC1; Homo sapiens, HMEC-1, 48 h, read-out: HMEC-1 GI50): 51.5 nM | LC50 (HMEC1; Homo sapiens, HMEC-1, 48 h, read-out: HMEC-1 LC50, SRB assay, 48 hours exposure): 10.9 µM | HMEC-1 TGI (HMEC1; SRB assay, 48 hours exposure): 3.49E-07 | GI50 (LoVo; Homo sapiens, LoVo, 48 h, read-out: LOVO GI50): 33.6 nM | LC50 (concentration for 50% cell killing) (LoVo; Homo sapiens, LoVo, 48 h, read-out: LOVO LC50, SRB assay, 48 hours exposure): 190 nM | LOVO TGI (LoVo; SRB assay, 48 hours exposure): 6.74E-08 | GI50 (SK-OV-3; Homo sapiens, SK-OV-3, 48 h, read-out: SK-OV3 GI50): 40.2 nM | LC50 (SK-OV-3; Homo sapiens, SK-OV-3, 48 h, read-out: SK-OV3 LC50, SRB assay, 48 hours exposure): 10.9 µM | SK-OV3 TGI (SK-OV-3; SRB assay, 48 hours exposure): 1.48E-07 | GI50 (LNCaP; Homo sapiens, LNCaP, 48 h, read-out: LNCAP GI50, SRB assay, 48 hours exposure): 19.7 nM | CC50 (LNCaP; Homo sapiens, LNCaP, 48 h, read-out: LNCAP LC50, SRB assay, 48 hours exposure): 73.6 nM | LNCAP TGI (LNCaP; SRB assay, 48 hours exposure): 3.80E-08 | Toxicity Data Heart (Heart [8]): 4.28E-07

CCCCCCCCCCCCCCCC(=O)Oc1c(C)c2c(c3c1[C@H]1SC[C@]4(NCCc5cc(O)c(OC)cc54)C(=O)OC[C@@H]3N3C1[C@H]1c4c(cc(C)c(OC)c4O)C[C@@H]([C@@H]3O)N1C)OCO2 (stereo partly shown) [Compound 170]
IC50 (DU-145 [9]): 52.2 nM | IC50 (P-388): 52.2 nM | Toxicity Data Heart (Heart [10]): non toxic | Toxicity Data Skeletal (Skeletal [11]): 3.29E-07 | Toxicity Data Myelo (Myelo [12]): non toxic | Toxicity Data Kidney (Kidney [13]): 3.01E-07 | antitumor activity (in words) (tumor cell culture): active | Toxicity Data Liver (Liver [14]): 3.58E-07 | IC50 (HT-29 [15]): 52.2 nM | IC50 (MEL-28): 52.2 nM | IC50 (A-549 [16]): 52.2 nM
